Columns and labels:
[1] = Scalability for Cmax: TSC with gamma cyclodextrin 1:1 in jejunum; type: in vivo; conditions: rat jejunum; 2.5, 5, 10 and 60 mg/kg TSC; TSC:gamma cyclodextrin 1:1; FIG. 4
Protocol: The dosage of TSC used in the above study is large, therefore, additional doses of TSC were administered with gamma cyclodextrin at a ratio of 1:1 (wt. TSC:wt. gamma cyclodextrin) in order to determine the scalability of systemic absorption (in terms of Cmax) with respect to TSC dosing amount. For the following study, TSC was administered to the jejunum intestinal segment at the following dosages: 2.5, 5, 10, and 60 mg/kg.
(§1) For this study, male Sprague-Dawley (SD) and Wistar rats weighing approximately 300-400 g each were fasted for 24 hours prior to each experiment. Water was given ad libitum and coprophagy was prevented by using cages with wire-mesh floors. Anesthesia was induced and maintained with isoflurane. The carotid artery was exposed and cannulated with PE-50 tubing. The cannula was secured using silk sutures and 2% lidocaine was applied to the wound.
Following cannulation, a front midline […] was made, exposing the abdomen and intestinal segments. In this study, the jejunum was isolated and the TSC formulation was administered in the proximal jejunum. Movement of TSC within the intestinal segments was not restricted distal to the site of administration. The intestine was replaced and the abdomen closed with sutures. […] The plasma mixture was then centrifuged and the supernatant was analyzed by HPLC to determine TSC levels.

[2] = Intestinal (jejunum) absorption of TSC and effect of gamma cyclodextrin; type: in vivo; conditions: rat jejunum; approx. 60 mg/kg TSC; TSC:gamma cyclodextrin 0.5:1 up to 4:1 (wt:wt); FIG. 2
Protocol: as §1, with “Male” for “For this study, male”
Following cannulation, a front midline […] was made, exposing the abdomen and intestinal segments. In this study, the jejunum was isolated and the TSC formulation was administered in the proximal jejunum. Approximately 60 mg/kg TSC was administered at various gamma cyclodextrin ratios of 0.5:1 up to 4:1 (wt. TSC:wt. gamma cyclodextrin). Movement of TSC within the intestinal segments was not restricted distal to the site of administration. The intestine was replaced and the abdomen closed with sutures. Approximately 0.3 mL blood samples were taken for the carotid artery at discrete time intervals following TSC administration. A small amount of sodium heparin was used as an anticoagulant. The blood samples were centrifuged and the resulting plasma volume mixed with 3 volumes of methanol and vortexed. The plasma mixture was then centrifuged and the supernatant was analyzed by HPLC to determine TSC levels.

[3] = test system: B16 (mouse melanoma) cells; assay: Pulmonary metastasis mouse model, B16 tumor counts in lungs; type: in vivo
Description: The pulmonary metastasis mouse model is a widely used model for the evaluation of tumor therapy. With B16 (mouse melanoma) cells, essentially all cells “take” upon intravenous cell injection in the tail vein, and the tumors are preferentially formed in the lungs. Thus, the term pulmonary metastasis is widely used even though every resulting pulmonary nodule is technically an independent “primary” tumor rather than a true metastasis.
There is always a fraction of nodules that is amelanotic (“white”) though, and this requires careful counting in order not to underestimate the tumor burden.
For the subject studies, eight-week-old female C57BL/6 mice were obtained from Charles River Laboratories. The mice were housed in groups of 5 or fewer, and received food and water ab libitum.
B16 cells were cultured by the Center for Cell Signaling of the University of Virginia using a standard protocol. The cells were received while they were in an exponential growth phase. The cells were supplied at a concentration of 5×10^5 cells/mL in Hank's buffered salt solution (HBSS).
The cells were injected immediately upon receipt, and this day was designated as Day 0. On Day 0, all of the mice were injected intravenously in the tail vein with 0.1 mL of the cell suspension, meaning that each mouse received 0.5×10^5 cells. The mice were then left alone until Day 4.
On Day 4, the mice were divided into two groups: Group A, consisting of 5 mice, received an intravenous injection of 0.05 mL of saline in the tail vein. Group B, composed of 7 mice, received an intravenous injection of 0.05 mL of a TSC solution in the tail vein, for a TSC dosage of 0.142 mg/kg/day. The same injections were repeated on Days 5-8 and on Days 11-15. On Day 18, the mice were sacrificed using carbon dioxide. The lungs were excised, rinsed and placed in Fekete's Solution and stored at room temperature.
Later, the lungs were assessed visually, in random, blinded order, to obtain a visual count of the numbers of tumors. […] Thus, the tumors were counted visually in two separate groups: small tumors and medium/large tumors. Although the majority of the tumors were black, there were also some white tumors.

neurons [4] = assay: Rat model of hemorrhagic stroke (collagenase), neuronal death; type: in vivo; conditions: TSC injected starting 3 hours after collagenase, sacrifice at 48 hours
Protocol: The first study in which this was done was one conducted using a rat model of hemorrhagic stroke. […] TSC was then injected starting 3 hours after the collagenase was administered, and the animals were sacrificed 48 hours after the administration of the collagenase.
When there is a hemorrhage in the brain, the blood pools and forms a hematoma. Around the periphery of this hematoma, there is a death of neuronal cells. […] Use of the stain, fluorojade, allows one to count the numbers of “dead” neurons in a given brain section of the brain. This was done in the area around the hematomas formed in the hemorrhagic stroke rat model.

neurons [5] = assay: Rat model of Parkinson's disease (6-OHDA), pretreatment, live neuron counts; type: in vivo; conditions: TSC 0.1 mg/kg for 7 days preceding 10 μg 6-OHDA; sacrifice 4 weeks later; FIG. 8
Protocol: Another model that was used examined the effect of TSC on neuronal viability is a rat model of Parkinson's disease. In this model, a burr hole is drilled through the skull and into the region of the substantia nigra. The Parkinson's-like condition is induced by injecting 6-hydroxydopamine (6-OHDA) into the brain. An amount of 10 μg of 6-OHDA is frequently injected in this model, and was used in the first study.
In the study, TSC was injected at a dosage of 0.1 mg/kg for 7 days preceding the injection of the 6-OHDA (the same dosing regimen as had been done in the crocetin study). Following the injection of the 6-OHDA, no further treatments were given over the next 4 weeks.
At that time the rats were sacrificed and the brains removed and sent to Charles River Laboratories for counts of live neurons. […] This allowed the comparison of cell death (treated side count/untreated side count) of the controls, which had been pretreated with saline, to the animals pretreated with TSC.

[6] = Behaviour of TSC under acidic conditions (stomach); type: physicochemical
Description: TSC is precipitated under acidic conditions, such as those which exist in the stomach. […] TSC is not stable in acidic conditions and will be converted to the cis isomer which can precipitate. A system has been devised that will protect TSC in the harsh, acidic environment of the stomach and release TSC in a more favorable pH region. A more favorable pH does exist in the small intestines. […] See Examples below. TSC's effectiveness is believed to be dependant on the TSC concentrations levels found in the body. The effectiveness of TSC can be prolonged by administering TSC orally. […] TSC must be protected from the harsh environment of the stomach and be release in a more favorable, higher pH region of the small intestine. For this study, tablets of TSC were made (Table 1) and were enterically coated with either Eudragit L100 or cellulose acetate phthalate (CAP). The integrity of both types of protective coatings were confirmed in a USP dissolution study in which enterically coated tablets were first place in a dissolution cell containing simulated gastric fluid (SGF), then transferred to another cell containing simulated intestinal fluid (SIF). […] This study was performed according to USP protocols.

neurons [7] = assay: Rat model of Parkinson's disease (6-OHDA), post-treatment, live neuron counts; type: in vivo
Protocol: It is of much more interest to know the effect of post-treatment on neuronal death following the injection of 6-OHDA. To investigate that, 5 μg of 6-OHDA were again injected into the substantia nigra as before, but the treatment began following that injection. The animals were then given daily injections of TSC (0.25 mg/kg) for 4 weeks before sacrifice. The brains were removed and sent to Charles River Laboratories for neuronal counts.

neurons [8] = conditions: study found in the literature; crocetin pretreatment; cited from earlier work
[9] = C57BL/6 mice lungs Day 18, TSC 0.142 mg/kg/day iv, N 7
[10] = mean±standard deviation, C57BL/6 mice lungs Day 18, TSC 0.142 mg/kg/day iv, N 7

Row | Compound | linear regression of Cmax versus TSC dosage [1] | effect of γ-cyclodextrin on absorption of TSC [2] | Small tumors med. ([3]; C57BL/6 mice lungs Day 18, TSC 0.142 mg/kg/day iv Days 4-8 and 11-15, N 7) | Medium/Large tumors med. [3, 9] | Total tumors med. [3, 9] | statistical difference of tumor counts, TSC group vs saline group ([3]; Day 18, large standard deviations) | Medium/Large tumors mean [3, 10] | Small tumors mean [3, 10] | Total tumors mean [3, 10] | less death of the neurons around the periphery of the hematoma (neurons [4]) | less neuronal death, fluorojade count of dead neurons around the hematomas (neurons [4]; FIG. 7) | percentage of live neurons (treated side count/untreated side count) vs saline controls (neurons [5]) | solubility in the acidic environment of the stomach ([6]; TSC is precipitated) | stability in acidic conditions ([6]; converted to the cis isomer) | more live neurons vs saline (neurons [7]; 5 μg 6-OHDA, daily TSC 0.25 mg/kg for 4 weeks after injection, p<0.05, FIG. 9) | effect on viability of live neurons, non-6-OHDA side of the brain (neurons [7]; daily TSC 0.25 mg/kg for 4 weeks vs saline, FIG. 10) | effect of pretreatment on neuronal death following 10 μg 6-OHDA (neurons [8])
1 | CC(/C=C/C=C(\C)C(=O)[O-])=C\C=C\C=C(C)\C=C\C=C(/C)C(=O)[O-].[Na+].[Na+] [TSC, trans sodium crocetinate] | excellent fit | greatly enhances | 18 | 19 | 34 | not statistically different | 30 ± 24 | 32 ± 29 | 62 ± 53 | about 20% | approximately 30% | approximately doubled | practically insoluble | not stable | about 20% | no effect | 
2 | CC(/C=C/C=C(\C)C(=O)O)=C\C=C\C=C(C)\C=C\C=C(/C)C(=O)O [crocetin] |  |  |  |  |  |  |  |  |  |  |  |  |  |  |  |  | beneficial effect

Source: patent publication US11491129B2, “Oral formulations of bipolar trans carotenoids” (priority 2010, dated 2022)
